Data: patent publication US9862682B2, “Functionalized pegylated cyanine compounds, pharmaceutical compositions, and methods of use thereof” (BroadPharm, priority 2016, dated 2018)

Test: Photophysical properties of cyanine dyes in dimethyl sulfoxide (DU 800 spectrophotometer)
Type: physicochemical
Conditions: for Excitation (nm): absorption
Description: The photophysical properties of a variety of cyanine dyes in dimethyl sulfoxide has been measured by the DU 800 spectrophotometer.

Emission (nm) | Extinction Coefficient | Excitation (nm) | Structure (SMILES)
817 nm | 1.16 × 10^5 | 785 nm | CC1(C)C(/C=C/C2=C(Cl)C(=C/C=C3/N(CCOCCOCCOCCN=[N+]=[N-])c4ccccc4C3(C)C)/CCC2)=[N+](CCOCCOCCOCCN=[N+]=[N-])c2ccccc21 [F1]
682 nm | 7.31 × 10^4 | 661 nm | O=C(O)CCOCCOCCOCCN1\C(=C/C=C\C=C\c2sc3ccccc3[n+]2CCOCCOCCOCCC(=O)O)Sc2ccccc21 [E2]
699 nm | 6.12 × 10^4 | 649 nm | C#CCOCCOCCOCCOCCOc1ccc2c(c1)C(C)(C)\C(=C/C=C\C=C/C1=[N+](C)c3ccc(OCCOCCOCCOCCOC)cc3C1(C)C)N2C [B1]
685 nm | 7.65 × 10^4 | 661 nm | COCCOCCOCCOCC[N+]1=C(/C=C/C=C/C=C2\Sc3ccccc3N2CCOCCOCCOCCC(=O)O)C(C)(C)c2ccccc21 [G1]
682 nm | 7.11 × 10^4 | 661 nm | COCCOCCOCCOCC[n+]1c(/C=C/C=C/C=C2\Sc3ccccc3N2CCOCCOCCOCCC(=O)O)sc2ccccc21 [E1]
671 nm | 4.23 × 10^4 | 652 nm | COCCOCCOCCOCCN1/C(=C/C=C/C=C/C2=[N+](CCOCCOCCOCCN=[N+]=[N-])c3ccccc3C2(C)C)Sc2ccccc21 [G2]
667 nm | 6.94 × 10^4 | 649 nm | CC1(C)C(/C=C/C=C/C=C2\N(CCOCCOCCOCCOCCC(=O)NCCN3C(=O)C=CC3=O)c3ccccc3C2(C)C)=[N+](CCOCCOCCOCCN=[N+]=[N-])c2ccccc21 [D3]
667 nm | 6.42 × 10^4 | 649 nm | COCCOCCOCCOCC[N+]1=C(/C=C/C=C/C=C2\N(CCOCCOCCOCCOCCC(=O)NCCC(=O)N3Cc4ccccc4C#Cc4ccccc43)c3ccccc3C2(C)C)C(C)(C)c2ccccc21 [D4]
667 nm | 1.63 × 10^5 | 649 nm | COCCOCCOCCOCC[N+]1=C(/C=C/C=C/C=C2/N(CCOCCOCCOCCN)c3ccccc3C2(C)C)C(C)(C)c2ccccc21 [A2]
